# How the values were obtained:
# [1] = test system: E.coli strain CA 8000 (Gyr+); experiment: Phenotype of strain (resistance or sensitivity); format: cell-based, Escherichia coli; details: E.coli CA 8000 (Gyr+)
# Protocol: (§1) To ascertain the involvement of gyrA mutation, another E.coli strain NK 5819 which is also GyrA″ and nalidixic acid resistant was tested for arteether sensitivity. As expected, strain NK5819 was also sensitive only to a-isomer of arteether. […] The assays for arteether sensitivity was performed by the standard single disk diffusion method (Bauer et al, 1966). As a next step, we isolated gyrA mutants of E.coli strain CA 8000, which is otherwise Gyr+ and nalidixic acid sensitive. The gyrA mutants of CA8000 were isolated as nalidixic acid resistant colonies (20 ug/ml), after mutagenic treatment with NTG ([…]). The isolated CA8000 gyrA mutants were also sensitive only to a isomer of arteether. […] To define precisely the involvement of gyr genes only in the a-arteether sensitivity, we utilised two recombinant clones (pMK 90 and pMK47 containing functional gyr A and gyrB genes respectively) in trans-complementation assays. For this purpose, we mobilized the plasmid clones into the E.coli gyr mutant strains. The resulting transformants were now nalidixic acid sensitive and a-arteether resistant. This constituted the direct evidence supporting our observation that DNA gyrase enzyme alone is involved in conferring a-arteether sensitivity to E.coli strain. […] DNA gyrase enzyme is essential for the bacterial growth. […]
# malaria = details: antimalarial; cited from earlier work
# E. coli mutant CA80012 = experiment: Minimum inhibitory concentration (cross resistance); format: cell-based; details: Escherichia coli, read-out: minimum inhibitory concentration (MIC)
# Text: (§2) In order to develop an arteether resistant mutants from an arteether sensitive strains a reverse strategy was applied. Quinoline/fluoroquinolone (Q/FQs) resistant strains were developed spontaneously i.e. screening overnight log phase culture of the Quinolone/fluoroquinolone sensitive i.e. arteether resistant strain (E coli CA 8000) on the poison agar plate of the Q/FQs. The Q/FQ resistant mutants which appeared on the poison agar plates were first purified through single colony purification and then checked for their arteether sensitivity. These arteether sensitive mutants on the contrary when checked for their Q/Fqs resistance they show different level of Q/FQs resistance.
# (§3) The minimum inhibitory concentrations (MIC) of the quinolone and fluoroquinolone antibiotics were quantified for different strains and compared among each other. The differential response indicate the measure of resistance and sensitivity. Higher MIC indicate more resistance.
# E. coli mutant CA8002 = experiment: as above; format: cell-based; details: Escherichia coli; strain CA8002
# Text: as §2, §3
# E. coli mutant CA8009 = experiment: as above; format: cell-based; details: Escherichia coli; strain CA8009
# Text: as §2, §3
# E. coli mutant CA8007 = experiment: as above; format: cell-based; details: Escherichia coli; strain CA8007
# Text: as §2, §3
# E. coli mutant CA8005 = experiment: as above; format: cell-based; details: Escherichia coli; strain CA8005
# Text: as §2, §3
# E. coli mutant CA8001 = experiment: as above; format: cell-based; details: Escherichia coli; strain CA8001
# Text: as §2, §3
# E. coli mutant CA8003 = experiment: as above; format: cell-based; details: Escherichia coli; strain CA8003
# Text: as §2, §3
# E. coli mutant CA80010 = experiment: as above; format: cell-based; details: Escherichia coli, read-out: minimum inhibitory concentration (MIC)
# Text: as §2, §3
# E. coli mutant CA8006 = experiment: as above; format: cell-based; details: Escherichia coli; strain CA8006
# Text: as §2, §3
# [2] = test system: E. coli mutant strain Rev 5; experiment: Phenotype of revertant (resistance or sensitivity); format: cell-based, Escherichia coli; set-up: key: R: resistance; S: sensitivity; details: gyrA GAT-GGT(242), Asp-Gly 81
# Text: (§4) The strains of E coli of the investigation, their phenotypes in terms of a-arteether (resistance or sensitivity, superscript R or S) or antibiotic resistance or sensitivity, change in nucleotide position of the gyrase A gene leading to the phenotype, corresponding amino acid change in the protein and the position of amino acid change are being described. Always the phenotype a-arteether resistance is accompanied with quinolone or fluoroquinolone sensitivity and vice versa.
# (§5) The commercially available strain E. coli DH5[…] (Stratagene, USA) is sensitive to […]-arteether but resistant to quinolone/fluoroquinolone due to a mutation at 87th aminoacid position of the gyr A protein (Aspartic acid of wild type is changed to Aspargine) with corresponding change in the codon GAC to AAC. This strain was used to screen […]-arteether resistant mutations. The observation was startling as the […]-arteether resistant mutants are the exact reversion at the 87th position of the aminoacid of gyrase A subunit i.e. Aspargine changed to aspartic acid, with corresponding change in the codon AAC to GAC.
# [3] = test system: E. coli mutant strain Rev. 3; experiment: Phenotype of revertant (resistance or sensitivity); format: cell-based, Escherichia coli; set-up: key: R: resistance; S: sensitivity; details: gyrA GAT-GGT(242), Asp-Gly 81
# Text: as §4, §5
# [4] = test system: E. coli mutant strain Rev 4; experiment: Phenotype of revertant (resistance or sensitivity); format: cell-based, Escherichia coli; set-up: key: R: resistance; S: sensitivity; details: gyrA GAT-GGT(242), Asp-Gly 81
# Text: as §4, §5
# [5] = test system: E. coli mutant strain Rev 6; experiment: Phenotype of revertant (resistance or sensitivity); format: cell-based, Escherichia coli; set-up: key: R: resistance; S: sensitivity; details: gyrA GAT-GGT(242), Asp-Gly 81
# Text: as §4, §5
# [6] = test system: E. coli mutant strain Rev. 2; experiment: Phenotype of revertant (resistance or sensitivity); format: cell-based, Escherichia coli; set-up: key: R: resistance; S: sensitivity; details: gyrA GAT-GGT(242), Asp-Gly 81
# Text: as §4, §5
# [7] = test system: E. coli mutant strain Rev. 1; experiment: Phenotype of revertant (resistance or sensitivity); format: cell-based, Escherichia coli; set-up: key: R: resistance; S: sensitivity; details: gyrA GAT-GGT(242), Asp-Gly 81
# Text: as §4, §5
# E. coli NK5819 [8] = experiment: Minimum inhibitory concentration (cross resistance); format: cell-based; details: Escherichia coli; strain NK5819
# Text: as §3
# E. coli DH5a = experiment: as above; format: cell-based; details: Escherichia coli; strain DH5a
# Text: as §3
# E. coli ET8000 [9] = experiment: as above; format: cell-based; details: Escherichia coli; strain ET8000
# Text: as §3
# E. coli CA8000 = experiment: as above; format: cell-based; details: Escherichia coli; strain CA8000
# Text: as §3
# E. coli CA8012 = experiment: Phenotype of strain (resistance or sensitivity); format: cell-based, Escherichia coli; set-up: key: R: resistance; S: sensitivity; details: gyrA GGT-GAT(242), Gly-Asp 81
# Text: as §2, §4
# E. coli DH5α = experiment: Phenotype of strain (resistance or sensitivity); format: cell-based, Escherichia coli; set-up: key to Phenotype: R: resistance; S: sensitivity
# Protocol: As a result of this mutation, the said strain is also resistant to a drug called nalidixic acid.
# (§6) To ascertain the involvement of gyrA mutation, another E.coli strain NK 5819 which is also GyrA″ and nalidixic acid resistant was tested for arteether sensitivity. As expected, strain NK5819 was also sensitive only to a-isomer of arteether. […] The assays for arteether sensitivity was performed by the standard single disk diffusion method (Bauer et al, 1966). As a next step, we isolated gyrA mutants of E.coli strain CA 8000, which is otherwise Gyr+ and nalidixic acid sensitive. The gyrA mutants of CA8000 were isolated as nalidixic acid resistant colonies (20 ug/ml), after mutagenic treatment with NTG ([…]). The isolated CA8000 gyrA mutants were also sensitive only to a isomer of arteether. […] To define precisely the involvement of gyr genes only in the a-arteether sensitivity, we utilised two recombinant clones (pMK 90 and pMK47 containing functional gyr A and gyrB genes respectively) in trans-complementation assays. For this purpose, we mobilized the plasmid clones into the E.coli gyr mutant strains. The resulting transformants were now nalidixic acid sensitive and a-arteether resistant. This constituted the direct evidence supporting our observation that DNA gyrase enzyme alone is involved in conferring a-arteether sensitivity to E.coli strain. […] DNA gyrase enzyme is essential for the bacterial growth. This enzyme transiently breaks the DNA strands and introduces negative superhelical turns in an ATP-dependent process. The E.coli DNA gyrase enzyme is a tetramer with two subunits A and B. These two subunits are nalidixic acid and coumermycin sensitive respectively (U.S. Pat. No. 6,127,405 and a co-pending patent).
# as §4
# E. coli ET8000 [10] = experiment: Phenotype of strain (resistance or sensitivity); format: cell-based, Escherichia coli; set-up: key: R: resistance; S: sensitivity; details: gyrA GAC-AAC(259), Asp-Asn 87
# Text: as §4
# [11] = test system: E. coli mutant strain AR 9 CA8014; experiment: Phenotype of revertant (resistance or sensitivity); format: cell-based, Escherichia coli; set-up: key: R: resistance; S: sensitivity; details: gyrA AAC-GAC(259), Asn-Asp 87
# Text: as §4, §5
# E. coli NK5819 [12] = experiment: Phenotype of strain (resistance or sensitivity); format: cell-based, Escherichia coli; set-up: key to Phenotype: R: resistance; S: sensitivity
# Protocol: as §6, §4
# [13] = test system: E.coli gyr mutant strains transformed with pMK 90 and pMK47 (functional gyr A and gyrB genes); experiment: Trans-complementation assay; format: cell-based, Escherichia coli; details: gyr mutant strains carrying pMK 90 / pMK47
# Protocol: as §1
# E. coli CA8005 = experiment: Phenotype of strain (resistance or sensitivity); format: cell-based, Escherichia coli; set-up: key: R: resistance; S: sensitivity; details: gyrA GAC-GGC(260), Asp-Gly 87
# Text: as §2, §4
# E. coli CA8007 = experiment: Phenotype of strain (resistance or sensitivity); format: cell-based, Escherichia coli; set-up: key: R: resistance; S: sensitivity; details: gyrA TCG-TTG(248), Ser-Leu 83
# Text: as §2, §4
# E. coli CA8002 = experiment: Phenotype of strain (resistance or sensitivity); format: cell-based, Escherichia coli; set-up: key: R: resistance; S: sensitivity; details: gyrA GGT-TGT(241), Gly-Cys 81
# Text: as §2, §4
# E. coli CA8009 = experiment: Phenotype of strain (resistance or sensitivity); format: cell-based, Escherichia coli; set-up: key: R: resistance; S: sensitivity; details: gyrA TCG-TTG(248), Ser-Leu 83
# Text: as §2, §4
# E. coli CA8001 = experiment: Phenotype of strain (resistance or sensitivity); format: cell-based, Escherichia coli; set-up: key: R: resistance; S: sensitivity; details: gyrA GGT-TGT(241), Gly-Cys 81
# Text: as §2, §4
# E. coli CA8006 = experiment: Phenotype of strain (resistance or sensitivity); format: cell-based, Escherichia coli; set-up: key: R: resistance; S: sensitivity; details: gyrA TCG-TTG(248), Ser-Leu 83
# Text: as §2, §4
# E. coli CA8003 = experiment: Phenotype of strain (resistance or sensitivity); format: cell-based, Escherichia coli; set-up: key: R: resistance; S: sensitivity; details: gyrA GAC-GGC(260), Asp-Gly 87
# Text: as §2, §4
# E. coli CA8010 = experiment: Phenotype of strain (resistance or sensitivity); format: cell-based, Escherichia coli; set-up: key: R: resistance; S: sensitivity; details: gyrA TCG-TTG(248), Ser-Leu 83
# Text: as §2, §4
Structure (SMILES),Sensitivity or resistance of the strain (words) [1],MIC (E. coli mutant CA80012),MIC (E. coli mutant CA8002),MIC (E. coli mutant CA8009),MIC (E. coli mutant CA8007),MIC (E. coli mutant CA8005),MIC (E. coli mutant CA8001),MIC (E. coli mutant CA8003),MIC (E. coli mutant CA80010),MIC (E. coli mutant CA8006),MIC (E. coli NK5819 [8]),MIC (E. coli DH5a),MIC (E. coli ET8000 [9]),MIC (E. coli CA8000),further results
"CCO[C@H]1O[C@@H]2O[C@@]3(C)CC[C@H]4[C@H](C)CC[C@@H]([C@H]1C)[C@@]24OO3 [arteethers, arteether]",resistant,–,–,–,–,–,–,–,–,–,–,–,–,–,Potency relative to artemisinin (malaria): 2-3 times
CCn1cc(C(=O)O)c(=O)c2cc(F)c(N3CCNC(C)C3)c(F)c21 (stereo not drawn) [Lomefloxacin],–,1.5 mg/L,1.5 mg/L,1.5 mg/L,1.5 mg/L,0.5 mg/L,1.5 mg/L,2.5 mg/L,1.5 mg/L,1.5 mg/L,< 0.5 mg/L,0.5 mg/L,> 2 mg/L,< 0.05 mg/L,Phenotype [2]: S; Phenotype [3]: S; Phenotype [4]: S; Phenotype [5]: S; Phenotype [6]: S; Phenotype [7]: S; Phenotype (E. coli CA8012): R
CCn1cc(C(=O)O)c(=O)c2ccc(C)nc21 [Nalidixic acid],sensitive,100 mg/L,150 mg/L,100 mg/L,100 mg/L,150 mg/L,150 mg/L,150 mg/L,100 mg/L,150 mg/L,20 mg/L,50 mg/L,100 mg/L,2 mg/L,"Phenotype (E. coli DH5α; DH5α, gyrA GAC-AAC(259), Asp-Asn 87): R; Sensitivity or resistance of the strain (words) (E. coli DH5α; E.coli DH5a (gyrA 96; Asp87Asn)): resistant; Phenotype (E. coli ET8000 [10]): R; Phenotype [11]: S; Sensitivity or resistance of the strain (words) (E. coli NK5819 [12]; E.coli NK 5819 (GyrA mutant)): resistant; Phenotype (E. coli NK5819 [12]; NK5819, gyrA GAC-TAC(259), Asp-Gly 87): R; Sensitivity or resistance of transformants [13]: sensitive; Phenotype (E. coli CA8005): R; Phenotype (E. coli CA8007): R; Phenotype (E. coli CA8002): R; Phenotype (E. coli CA8009): R; Phenotype (E. coli CA8001): R; Phenotype (E. coli CA8006): R; Phenotype (E. coli CA8003): R; Phenotype (E. coli CA8010): R"

# From patent US7510836B2, “Alpha arteether resistance domain” (priority 2003, dated 2009)
